Experimental data published in the NIST ThermoML archive (doi:10.1016/j.jct.2005.03.004).
Numbers after ± are expanded uncertainties.

Conditions: Liquid

SMILES: CO [methanol]
- vapor or sublimation pressure (298.15 K): 16.97 ± 0.046 kPa
- vapor or sublimation pressure (303.15 K): 21.88 ± 0.053 kPa
- vapor or sublimation pressure (308.15 K): 27.96 ± 0.066 kPa
- vapor or sublimation pressure (313.15 K): 35.44 ± 0.081 kPa
- vapor or sublimation pressure (318.15 K): 44.54 ± 0.099 kPa
- vapor or sublimation pressure (323.15 K): 55.58 ± 0.11 kPa
